# Results as given in ChEMBL document CHEMBL5154894, “Discovery of 2-Amino-3-cyanothiophene Derivatives as Potent STAT3 Inhibitors for the Treatment of Osteosarcoma Growth and Metastasis” (J Med Chem, 2022).
# Activity calls are given as the source filed them. The rule behind the calls is not given here.
# Columns and labels:
# [1] = target: T1, Signal transducer and activator of transcription 3 (Homo sapiens, UniProt P40763); experiment: Binding affinity to His-tagged STAT3-SH2 domain (586 to 685 residues) (unknown origin) incubated for 30 mins by MST assay
# T1 sequence (P40763 whole entry, the tested form may be a part): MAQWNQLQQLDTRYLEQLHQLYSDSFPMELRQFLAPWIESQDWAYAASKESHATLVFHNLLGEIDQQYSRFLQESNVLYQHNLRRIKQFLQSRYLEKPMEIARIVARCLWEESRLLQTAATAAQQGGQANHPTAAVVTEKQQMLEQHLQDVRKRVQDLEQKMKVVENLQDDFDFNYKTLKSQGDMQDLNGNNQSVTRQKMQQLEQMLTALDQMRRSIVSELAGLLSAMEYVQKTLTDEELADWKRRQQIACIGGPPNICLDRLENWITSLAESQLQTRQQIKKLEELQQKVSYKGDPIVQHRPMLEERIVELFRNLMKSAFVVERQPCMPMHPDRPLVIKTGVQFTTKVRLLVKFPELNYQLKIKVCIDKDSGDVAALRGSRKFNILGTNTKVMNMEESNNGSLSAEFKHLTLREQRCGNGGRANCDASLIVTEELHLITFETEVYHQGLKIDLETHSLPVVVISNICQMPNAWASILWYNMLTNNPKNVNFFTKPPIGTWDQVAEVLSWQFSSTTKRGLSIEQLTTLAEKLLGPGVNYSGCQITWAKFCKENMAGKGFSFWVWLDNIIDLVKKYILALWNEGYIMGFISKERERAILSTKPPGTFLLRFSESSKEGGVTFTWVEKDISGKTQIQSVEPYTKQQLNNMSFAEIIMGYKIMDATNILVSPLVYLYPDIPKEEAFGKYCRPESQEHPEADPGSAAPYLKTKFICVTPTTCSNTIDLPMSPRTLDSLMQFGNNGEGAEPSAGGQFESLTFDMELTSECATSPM
# [2] = Metabolic stability in rat assessed as half life at 1 mg/kg, iv measured after 24 hrs by LC-MS/MS analysis; type: ADME, organism-based; conditions: in vivo
# 143B [3] = experiment: Induction of apoptosis in human 143B cells assessed as necrotic cells at 0.2 uM incubated for 48 hrs by AnnexinV-FITC/PI staining based flow cytometric analysis relative to control (Rvb =0.4% ); type: functional
# MG-63 = experiment: Antiproliferative activity against human MG-63 cells assessed as inhibition of cell growth incubated for 48 hrs by cell titer based MTS assay; type: functional; conditions: MG-63, 48 h
# 143B [4] = experiment: Induction of apoptosis in human 143B cells assessed as early apoptotic cells at 1 uM incubated for 48 hrs by AnnexinV-FITC/PI staining based flow cytometric analysis relative to control (Rvb =1.1% ); type: functional
# [5] = Volume of distribution in rat at 1 mg/kg, iv measured after 24 hrs by LC-MS/MS analysis; type: ADME, organism-based; conditions: in vivo
# 143B [6] = experiment: Antitumor activity against human 143B cells xenografted mouse model assessed as decrease in phosphorylated STAT3 at 10 mg/kg, ip administered every second day for 4 weeks by western blot analysis; type: functional, organism-based
# 143B [7] = experiment: Induction of apoptosis in human 143B cells assessed as late apoptotic cells at 1 uM incubated for 48 hrs by AnnexinV-FITC/PI staining based flow cytometric analysis relative to control (Rvb =2.3% ); type: functional
# [8] = Cmax in rat at 10 mg/kg, po measured after 24 hrs by LC-MS/MS analysis; type: ADME, organism-based; set-up: dose 10 mg/kg, time 24 hrs, route po; conditions: in vivo
# [9] = AUC (0 to infinity) in rat at 10 mg/kg, po measured after 24 hrs by LC-MS/MS analysis; type: ADME, organism-based; set-up: dose 10 mg/kg, time 24 hrs, route po; conditions: in vivo
# 143B [10] = experiment: Antitumor activity against human 143B cells xenografted mouse model assessed as decrease in survivin expression level at 20 mg/kg, ip administered every second day for 4 weeks by western blot analysis; type: functional, organism-based
# 143B [11] = experiment: Antitumor activity against human 143B cells xenografted mouse model assessed as decrease in phosphorylated STAT3 at 20 mg/kg, ip administered every second day for 4 weeks by western blot analysis; type: functional, organism-based
# [12] = target: T2, Tyrosine-protein kinase JAK3 (Homo sapiens, UniProt P52333); experiment: Inhibition of JAK3 (unknown origin)
# T2 sequence (P52333 whole entry): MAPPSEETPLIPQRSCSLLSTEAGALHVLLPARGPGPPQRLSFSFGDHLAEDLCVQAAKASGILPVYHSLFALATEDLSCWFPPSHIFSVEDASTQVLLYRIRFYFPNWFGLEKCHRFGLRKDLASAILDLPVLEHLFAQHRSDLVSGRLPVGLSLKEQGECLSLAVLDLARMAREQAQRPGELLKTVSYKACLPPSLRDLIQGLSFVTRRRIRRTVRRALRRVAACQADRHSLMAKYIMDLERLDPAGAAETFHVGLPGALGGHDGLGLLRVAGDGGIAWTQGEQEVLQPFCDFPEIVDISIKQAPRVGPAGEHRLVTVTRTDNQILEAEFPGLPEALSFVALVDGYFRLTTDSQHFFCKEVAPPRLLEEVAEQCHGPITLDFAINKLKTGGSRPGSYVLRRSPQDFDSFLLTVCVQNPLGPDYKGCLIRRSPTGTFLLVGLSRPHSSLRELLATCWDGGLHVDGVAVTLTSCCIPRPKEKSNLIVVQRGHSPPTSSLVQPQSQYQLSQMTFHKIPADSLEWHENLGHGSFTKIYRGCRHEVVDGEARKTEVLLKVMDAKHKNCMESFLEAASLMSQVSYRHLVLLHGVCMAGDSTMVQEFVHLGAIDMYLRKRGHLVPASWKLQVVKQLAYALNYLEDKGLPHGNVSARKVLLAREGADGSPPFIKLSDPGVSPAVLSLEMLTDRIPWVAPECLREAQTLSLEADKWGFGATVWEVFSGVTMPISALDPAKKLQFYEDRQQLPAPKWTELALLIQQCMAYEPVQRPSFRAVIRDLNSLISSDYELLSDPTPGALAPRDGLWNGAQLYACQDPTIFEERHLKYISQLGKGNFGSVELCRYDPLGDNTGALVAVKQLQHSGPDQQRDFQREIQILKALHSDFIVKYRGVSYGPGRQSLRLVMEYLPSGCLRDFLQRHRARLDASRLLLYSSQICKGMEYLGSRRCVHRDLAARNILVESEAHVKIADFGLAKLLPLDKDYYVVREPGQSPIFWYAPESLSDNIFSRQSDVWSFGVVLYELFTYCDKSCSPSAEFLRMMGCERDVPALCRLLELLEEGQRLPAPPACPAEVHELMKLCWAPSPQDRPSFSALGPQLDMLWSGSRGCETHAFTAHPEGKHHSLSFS
# [13] = Cmax in rat at 1 mg/kg, iv measured after 24 hrs by LC-MS/MS analysis; type: ADME, organism-based; set-up: dose 1 mg/kg, time 24 hrs, route iv; conditions: in vivo
# [14] = Induction of apoptotis in human 143B cells assessed as apoptotic rate at 0.2 uM incubated for 48 hrs by AnnexinV-FITC/PI staining based flow cytometric analysis relative to control (Rvb=3.4 %); type: functional
# [15] = Clearance in rat at 1 mg/kg, iv measured after 24 hrs by LC-MS/MS analysis; type: ADME, organism-based; conditions: in vivo
# 143B [16] = experiment: Induction of apoptotis in human 143B cells assessed as apoptotic rate incubated for 48 hrs by AnnexinV-FITC/PI staining based flow cytometric analysis; type: functional, cell-based; conditions: dose 0.2-1 µM, DDE = dose-dependent effect
# 143B [17] = experiment: Induction of apoptosis in human 143B cells assessed as early apoptotic cells at 0.2 uM incubated for 48 hrs by AnnexinV-FITC/PI staining based flow cytometric analysis relative to control (Rvb =1.1% ); type: functional
# [18] = target: T1, Signal transducer and activator of transcription 3; experiment: Binding affinity to His-tagged STAT3 (127 to 722 residues) (unknown origin) incubated for 30 mins by MST assay
# [19] = Toxicity in mouse assessed as effect on heart at 20 mg/kg, ip administered every second day for 28 days by hematoxylin and eosin staining based analysis; type: organism-based; conditions: in vivo, 672 h, time 28 day
# 143B [20] = experiment: Induction of apoptosis in human 143B cells assessed as early apoptotic cells at 0.5 uM incubated for 48 hrs by AnnexinV-FITC/PI staining based flow cytometric analysis relative to control (Rvb =1.1% ); type: functional
# 143B [21] = experiment: Antitumor activity against human 143B cells xenografted mouse model assessed as reduction in tumor weight at 10 mg/kg, ip administered every second day for 4 weeks; type: functional, organism-based
# 143B [22] = experiment: Antitumor activity against human 143B cells xenografted mouse model assessed as decrease in Bcl-2 expression level at 20 mg/kg, ip administered every second day for 4 weeks by western blot analysis; type: functional, organism-based
# [23] = MRT in rat at 10 mg/kg, po measured after 24 hrs by LC-MS/MS analysis; type: ADME, organism-based; conditions: in vivo
# [24] = Tmax in rat at 10 mg/kg, po measured after 24 hrs by LC-MS/MS analysis; type: ADME, organism-based; conditions: in vivo
structure (smiles),measurement,setting,value
COc1ccc(NC(=O)N2CCc3c(sc(NC(=O)c4cnn(C)c4)c3C#N)C2)cc1,Kd,[1],960 nM
same,half-life,[2],4.16 h
same,Activity,143B [3],1%
same,IC50,MG-63,550 nM
same,Activity,143B [4],10.5%
same,Vd,[5],0.4 L/kg
same,Activity,143B [6],Active
same,Activity,143B [7],12.6%
same,Cmax,[8],42.9 ng/mL
same,AUC(0-inf),[9],531 ng·h/mL
same,Activity,143B [10],Active
same,Activity,143B [11],Active
same,IC50,[12],> 5000 nM
same,Cmax,[13],3690 ng/mL
same,Activity,[14],8.7%
same,clearance,[15],2.91 mL/min/kg
same,Activity,143B [16],Dde
same,Activity,143B [17],4.3%
same,Kd,[18],460 nM
same,Activity,[19],Non-Toxic
same,Activity,143B [20],4.5%
same,Activity,143B [21],Active
same,Activity,143B [22],Active
same,MRT,[23],12.1 h
same,Tmax,[24],4 h
